Test results: patent publication US20140162974A1, “METHODS FOR MODULATION OF PHOSPHORUS AND FGF23” (Luitpold Pharmaceuticals, Inc., priority 2012, published 2014)

How the values were obtained:
[1] = Example 3 trial: adverse events; type: in vivo, human
Procedure: Study visits were on Days 0 (when iron was infused), 1 (24 hours after iron infusion), 7, 14, and 35. The primary objectives were to determine the effect of iron deficiency on cFGF23 and iFGF23 levels and the effect of intravenous iron on iFGF23 and cFGF23 levels.
Randomization occurred centrally via a fax-based system. […] The complete dose was infused over 15 minutes on day 0. […] An initial test dose of 25 mg was administered slowly over 5 minutes.
Laboratory testing of blood and three-hour urine collections was performed at the screening visit and on study days 0 (when iron was infused), 1 (24 hours after iron infusion), 7, 14, and 35 (see e.g., FIG. 2A). Any subject who experienced a reduction in serum phosphate below the normal range after day 0 underwent additional phosphate measurements at 14 day intervals following day 35 until the level returned to the normal reference range. Safety evaluations of all subjects included ascertainment of adverse events, physical examinations at all study visits, and laboratory assessments. Any subject who withdrew from the study received a follow-up phone call to ascertain adverse events 30 days after they received study drug.
The pre-specified primary endpoints were changes in blood and urine markers of phosphate and bone metabolism among the evaluable population, defined as those subjects with baseline and at least one post-randomization set of FGF23 and blood and urinary phosphate levels. Secondary endpoints included the proportion of subjects achieving a hemoglobin increase […] anytime between baseline and day 35, and the change from baseline to highest hemoglobin, ferritin, and TSAT anytime during the 35-day study period. Additional safety endpoints included incidence, severity, and seriousness of adverse events, and incidence of treatment-emergent abnormal clinical laboratory values in the safety population, defined as all subjects who received the study drug regardless of subsequent laboratory testing.
The number and proportion of subjects who experienced an adverse event in the safety population was summarized and rates between the iron treatment groups using Fisher's exact test were compared for the categorical safety endpoints. Analyses were conducted using SAS version 9 (Cary, N.C.). All statistical tests were 2-tailed and p values<0.05 were considered statistically significant.

[2] = 13-week cumulative dose pre-clinical studies; type: in vivo, dogs and rats; conditions: over 13 weeks; clinical signs of iron accumulation in liver, spleen, kidneys
[3] = Intra-arterial, perivenous, or intravenous tolerance studies; type: in vivo, rabbit; conditions: intra-arterial
[4] = In vitro and in vivo mutagenicity tests

## polynuclear iron (III)-hydroxide 4(R)-(poly-(1→4)-O-α-glucopyranosyl)-oxy-2(R),3(S),5(R),6-tetrahydroxy-hexanoate [FCM]
[1]
  subjects who experienced one or more adverse events: 68%
  subjects with adverse events considered to be related to study drug: 32%
[1]; p=0.008 between groups
  adverse event: reduced serum phosphate noted by subjects' physicians: 32%
[1]; safety population
  Discontinuation from study due to adverse event, n (%): 2 (8%) n (%)
  Patients experiencing one or more adverse events related to study drug, n (%): 8 (32%) n (%)
  Patients experiencing one or more adverse events, n (%): 17 (68%) n (%)
  Patients experiencing one or more serious adverse events, n (%): 0 (0%) n (%)
[2]
  cumulative dose with no observed adverse effect level: up to 117 mg iron/kg body weight
[3]
  treatment-related local tissue irritation: No treatment-related local tissue irritation was observed
[4]
  clastogenicity, mutagenicity, chromosomal damage or bone marrow cell toxicity: no evidence
